Results on five molecules are retold here after patent US8835375B2 (Applied Nanosystems B.V., priority 2006, dated 2014).

For orientation: half-life means how long it takes for the measured level to halve. High values mean slow decline, low ones rapid decline.

Where two headings read alike, the source gives them in different places. Non-standard residues stand in square brackets, D forms with d. No end group written: not given here. Abu = CC[C@H](N)C(=O)O

The nature of data set [1]: proteolytic resistance in pig kidney homogenate. As to conditions: for metabolised at 3 h, 0.2 μmol angiotensin/mg kidney homogenate / half-life: pig; for metabolised at 3 h, 0.2 μmol angiotensin/mg kidney homogenate: pig kidney homogenate, read-out: Degradation after 3 h (%). The data set is classed as in vitro ADME. How it is done: (§1) Angiotensin (wildtype or cyclised analogs, chemically produced [Cyc 4-7] Ang(1-7) or biologically produced [Cyc 4-7] Ang(1-8)) was added to homogenates of pig liver (0.2 μmol angiotensin/mg liver homogenate), pig kidney (0.2 μmol angiotensin/mg kidney homogenate), pig pancreas (0.8 μmol angiotensin/mg pancreas homogenate) or plasma (1 μmol angiotensin/ml) and incubated at 37° C., pH 7.4 or pH 5, for different time periods up to 30 hours. The enzymatic reaction was stopped by 100° C. for 5 min. The remaining amount of intact angiotensin was determined by RP-HPLC with C18-column, mobile phase gradient and 214 nm detection.

Data set [2] can be described thus: proteolytic resistance in pig pancreas homogenate. As to conditions: for metabolised at 3 h, 0.8 μmol angiotensin/mg pancreas homogenate / half-life: pig; for metabolised at 3 h, 0.8 μmol angiotensin/mg pancreas homogenate: pig pancreas homogenate, read-out: Degradation after 3 h (%). Type of data set: in vitro ADME. On the procedure:
as §1

A short description of data set [3]: proteolytic resistance in pig liver homogenate. The data set is classed as in vitro ADME. The conditions noted are these: for metabolised at 3 h, 0.2 μmol angiotensin/mg liver homogenate / half-life: pig; for metabolised at 3 h, 0.2 μmol angiotensin/mg liver homogenate: pig liver homogenate, read-out: Degradation after 3 h (%). How it is done: as §1
Data set [4] can be described thus: proteolytic resistance in plasma. Type of data set: in vitro ADME. As to conditions: pH 7.4, 37° C. On the procedure: as §1
A short description of data set [5]: in vivo stability during continuous intravenous infusion in the rat (Maldi TOF of plasma). Details: species or system Sprague Dawley rat. The conditions noted are these: i.v. infusion 1 mL/hour of 100 μM of each peptide together, sample taken at 120 min. How it is done:
Rats (Sprague Dawley) were infused during 2 hours at a speed of 1 mL/hour with a solution containing simultaneously two compounds: both 100 μM natural Ang(1-7) as well as 100 μM methyllanthionine-containing angiotensin(1-7) with the thioether bridge between positions 4 and 7. Methyllanthionine-containing angiotensin(1-7) was prepared using L. lactis expressing lantibiotic enzymes as described in example 1. Maldi TOF analyses were performed on plasma samples as described in example 3. Undiluted sample (upper spectrum, mass peak of 826.06 Da at the arrow) and 100-fold diluted sample (lower spectrum, mass peak of 826.47 Da at the arrow) both gave a peak of the right mass, i.e. corresponding to intact methyllanthionine-containing angiotensin(1-7) (Theoretical mass M+H^+ equals 825.9758). […] In a control experiment mixing natural angiotensin(1-7) ex vivo with rat plasma, allowed subsequent detection of natural angiotensin(1-7) (not shown). Experimental details are mentioned in the text of example 3.
A male Sprague Dawley rat was kept under O2/Isoflurane (1.5-2%) narcosis throughout the study. A jugular vein catheter was applied and connected to a syringe containing 0.9% physiological salt solution. The syringe was mounted onto an infusion pump and the flow rate set to 1 mL/hour. […]

Data set [6] addresses T1, Angiotensin Converting Enzyme (ACE) from Porcine kidney (Sus scrofa, UniProt F1RRW5).
T1 construct: Angiotensin Converting Enzyme (ACE) from Porcine kidney, SIGMA; purchased SIGMA; host or cells: porcine kidney (tissue-derived)
T1 sequence (F1RRW5 34-1309): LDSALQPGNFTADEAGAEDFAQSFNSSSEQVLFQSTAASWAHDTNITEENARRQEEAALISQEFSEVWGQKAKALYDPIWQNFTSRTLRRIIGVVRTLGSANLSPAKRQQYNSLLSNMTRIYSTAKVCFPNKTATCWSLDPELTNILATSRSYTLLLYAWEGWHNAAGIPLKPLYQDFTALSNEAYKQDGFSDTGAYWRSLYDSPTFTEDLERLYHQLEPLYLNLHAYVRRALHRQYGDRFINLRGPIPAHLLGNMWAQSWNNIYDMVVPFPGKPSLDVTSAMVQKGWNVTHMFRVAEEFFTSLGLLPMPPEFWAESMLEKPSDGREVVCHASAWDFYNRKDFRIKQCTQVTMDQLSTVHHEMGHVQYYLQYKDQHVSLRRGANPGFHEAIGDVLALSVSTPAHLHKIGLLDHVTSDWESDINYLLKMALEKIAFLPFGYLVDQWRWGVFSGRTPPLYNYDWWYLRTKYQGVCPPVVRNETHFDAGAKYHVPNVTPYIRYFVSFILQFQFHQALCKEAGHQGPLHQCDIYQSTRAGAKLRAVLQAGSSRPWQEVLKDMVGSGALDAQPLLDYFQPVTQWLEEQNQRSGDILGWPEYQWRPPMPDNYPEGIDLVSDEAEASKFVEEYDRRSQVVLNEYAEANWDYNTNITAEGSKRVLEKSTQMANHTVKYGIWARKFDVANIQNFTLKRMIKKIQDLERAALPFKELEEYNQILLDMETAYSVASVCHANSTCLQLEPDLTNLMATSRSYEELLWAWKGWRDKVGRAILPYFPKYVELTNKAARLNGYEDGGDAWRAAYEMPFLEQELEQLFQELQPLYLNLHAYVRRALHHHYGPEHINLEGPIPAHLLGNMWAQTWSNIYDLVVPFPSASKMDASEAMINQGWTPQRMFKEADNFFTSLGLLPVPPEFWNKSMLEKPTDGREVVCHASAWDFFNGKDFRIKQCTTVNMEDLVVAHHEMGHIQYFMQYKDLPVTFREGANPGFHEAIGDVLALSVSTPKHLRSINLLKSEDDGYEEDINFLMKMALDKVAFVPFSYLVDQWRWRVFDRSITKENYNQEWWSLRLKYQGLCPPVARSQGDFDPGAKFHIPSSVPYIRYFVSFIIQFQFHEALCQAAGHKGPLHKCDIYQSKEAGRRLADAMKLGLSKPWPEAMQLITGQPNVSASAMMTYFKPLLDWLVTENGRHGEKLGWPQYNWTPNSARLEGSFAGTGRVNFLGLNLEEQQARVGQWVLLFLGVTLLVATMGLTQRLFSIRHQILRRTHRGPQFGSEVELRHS
As to the kind of experiment: resistance against angiotensin converting enzyme (ACE). Type of data set: in vitro ADME. The conditions noted are these: 4 nM ACE, 50 μM peptide. How it is done:
Angiotensin Converting Enzyme (ACE) from Porcine kidney, SIGMA, was used at 4 nM final concentration, FIGS. 2A and 2B, or at 8 nM final concentration, FIGS. 2C and 2D. Natural Ang(1-7) was purchased from Bachem. All experiments were performed in duplicate in a waterbath at 37° C., incubations were performed in a buffer containing 100 mM Tris-HCl, 300 mm NaCl, 10 μM Zn, pH 8.3. Thioether-ring-containing angiotensin was obtained by bacterial production using L. lactis containing the nisin modification and transporter enzymes, NisBTC. Natural angiotensin(1-7), lanthionine-containing angiotensin(1-7) and methyllanthionine-containing angiotensin(1-7) were each used at a concentration of 50 μM. Both the lanthionine and the methyllanthionine variant had the thioether bridge between positions 4 and 7. The reaction was stopped by 100° C. for 5 minutes and put on ice. Samples were centrifuged for 10 min at 14000 rpm at 4° C. and quantified by RP-HPLC. Identification of the HPLC peaks was performed using Maldi TOF mass spectrometry. All points are the average of two measurements.

In data set [7] the test system is Angiotensin Converting Enzyme (ACE). As to the kind of experiment: Angiotensin Converting Enzyme (ACE) from Porcine kidney, SIGMA, 8 nM in 100 mM Tris-HCl, 300 mm NaCl, 10 μM Zn, pH 8.3. As to conditions: 37° C.
The mark [8] stands for this setting: pH 7.4, versus linear angiotensin(1-7).
[9] abbreviates: tissue homogenate, pH 7.4, 37° C.

Regarding `CC[C@H](C)[C@H](NC(=O)[C@H](Cc1ccc(O)cc1)NC(=O)[C@@H](NC(=O)[C@H](CCCNC(=N)N)NC(=O)[C@@H](N)CC(=O)O)C(C)C)C(=O)N[C@@H](Cc1cnc[nH]1)C(=O)N1CCC[C@H]1C(=O)N[C@@H](Cc1ccccc1)C(=O)O` [Ang(1-8), Asp-Arg-Val-Tyr-Ile-His-Pro-Phe, reference compound], the metabolised at 3 h, 0.2 μmol angiotensin/mg kidney homogenate in data set [1] (pH 7.4, 37° C.) turned out to be 100%. For the same molecule, in data set [2] (pH 7.4, 37° C.), the metabolised at 3 h, 0.8 μmol angiotensin/mg pancreas homogenate amounted to 70%. Further, the metabolised at 3 h, 0.2 μmol angiotensin/mg liver homogenate in data set [3] (pH 7.4, 37° C.) amounted to 98%.

As for `CC[C@H](C)[C@@H]1NC(=O)[C@H](NC(=O)[C@@H](NC(=O)[C@H](CCCNC(=N)N)NC(=O)[C@@H](N)CC(=O)O)C(C)C)CSC[C@@H](C(=O)O)NC(=O)[C@H](Cc2c[nH]cn2)NC1=O` [[Cyc^4-7]Ang(1-7), Asp-Arg-Val-Ala-Ile-His-Ala], the “increase of half-life by 4,7-cyclisation” value was 6 fold in data set [1] (setting [8]), “more than 18 fold” in data set [2] (setting [8]) and 2 fold in data set [3] (setting [8]). Further, the metabolised at 3 h, 0.2 μmol angiotensin/mg kidney homogenate in data set [1] (pH 5.0, 37° C.) came out at 4%; in data set [1] (pH 7.4, 37° C.), 91%. Besides, the half-life in data set [1] (tissue homogenate, pH 5.0, 37° C., cell printed in hours) is over 24 h; in data set [1] (setting [9]) it was 0.533 h; in data set [2] (tissue homogenate, pH 7.4, 37° C., cell printed in hours), over 24 h; in data set [4], 15.4 h; in data set [3] (tissue homogenate, pH 5.0, 37° C.) it was 11.8 h; in data set [3] (setting [9]) it was 1.13 h. The “Half-life (min)” value in data set [2] (pH 5.0, 37° C.) is “∞”. Further, the metabolised at 3 h, 0.8 μmol angiotensin/mg pancreas homogenate is 6% in data set [2] (pH 5.0, 37° C.) and 4% in data set [2] (pH 7.4, 37° C.). For the same molecule, the metabolised at 3 h, 1 μmol/ml in data set [4] (read-out: Degradation after 3 h (%)) is 15%. In data set [3] (pH 5, versus linear angiotensin(1-7)), the “increase of half-life by ring introduction” value was 5 fold. Further, the metabolised at 3 h, 0.2 μmol angiotensin/mg liver homogenate was found to be 8% in data set [3] (pH 5.0, 37° C.) and 82% in data set [3] (pH 7.4, 37° C.).

Consider “DRV[Abu]IHA [methyllanthionine-containing Ang(1-7)]”, for which the “detection of intact peptide in plasma by Maldi TOF” value in data set [5] is given as “detected”. The “formation of Ang(1-5) by incubation with ACE” value in data set [6] is listed as “did not lead to the appearance of Ang(1-5)”. Further, the “breakdown by ACE” value in data set [6] (26 hour incubation, 37° C., pH 8.3) was “no degradation”.

For the molecule DRVAIHA, the not cleaved result in data set [7] is recorded as “no breakdown observed”.

On to `CC[C@H](C)[C@@H]1NC(=O)C(NC(=O)[C@@H](NC(=O)[C@H](CCCNC(=N)N)NC(=O)[C@@H](N)CC(=O)O)C(C)C)C(C)SC[C@@H](C(=O)N[C@@H](Cc2ccccc2)C(=O)O)NC(=O)[C@H](Cc2c[nH]cn2)NC1=O` (stereo partly drawn) [[Cyc^4-7]Ang(1-8), Asp-Arg-Val-Abu-Ile-His-Ala-Phe], for which, in data set [1] (pH 7.4, 37° C.), the half-life turned out to be 0.117 h and the metabolised at 3 h, 0.2 μmol angiotensin/mg kidney homogenate came to 100%. Besides, in data set [2] (pH 7.4, 37° C.), the half-life was found to be 8.05 h and the metabolised at 3 h, 0.8 μmol angiotensin/mg pancreas homogenate was determined as 21%. In data set [3] (pH 7.4, 37° C.), the half-life turned out to be 1.12 h and the metabolised at 3 h, 0.2 μmol angiotensin/mg liver homogenate worked out at 100%.
